The values that follow come from PubChem BioAssay AID330 (DTP/NCI, 2004).

Several values for one entry are separate records, joined by “and”; a condition that tells them apart may be missing. Equal entries are not always repeated. Inconclusive results and toxic doses are left out.

The test system of this assay is P388 leukemia ip, CD2F1 mice, survival T/C. The experiment in a line: NCI In Vivo Anticancer Drug Screen. Data for tumor model P388 Leukemia (intraperitoneal) in CD2F1 (CDF1) mice. The following applies: endpoint: median survival time, higher = longer survival. A digest of the protocol:
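Mice carrying the transplanted tumor received test compound or vehicle. Survival was recorded in each group, and the value is the treated-group measurement divided by that of the vehicle-treated control group.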

Where [1] appears, read: dose: 50.0 mg/kg/injection, schedule: Q01DX005 (ip), vehicle: saline with Tween-80.
Setting [2] is: dose: 100.0 mg/kg/injection, schedule: Q01DX005 (ip), vehicle: saline with Tween-80.
The mark [3] stands for this setting: dose: 50.0 mg/kg/injection, schedule: Q01DX005 (ip), vehicle: Klucel (hydroxypropylcellulose) (HPC).
Setting [4] is: dose: 100.0 mg/kg/injection, schedule: Q01DX005 (ip), vehicle: Klucel (hydroxypropylcellulose) (HPC).
Where [5] appears, read: dose: 200.0 mg/kg/injection, schedule: Q01DX005 (ip), vehicle: Klucel (hydroxypropylcellulose) (HPC).
[6] abbreviates: dose: 12.5 mg/kg/injection, schedule: Q01DX009 (ip), vehicle: Klucel (hydroxypropylcellulose) (HPC).
Where [7] appears, read: dose: 25.0 mg/kg/injection, schedule: Q01DX009 (ip), vehicle: Klucel (hydroxypropylcellulose) (HPC).
Where [8] appears, read: dose: 50.0 mg/kg/injection, schedule: Q01DX009 (ip), vehicle: Klucel (hydroxypropylcellulose) (HPC).
The mark [9] stands for this setting: dose: 100.0 mg/kg/injection, schedule: Q01DX009 (ip), vehicle: Klucel (hydroxypropylcellulose) (HPC).
Where [10] appears, read: dose: 50.0 mg/kg/injection, schedule: Q01DX009 (ip), vehicle: saline.
Setting [11] is: dose: 100.0 mg/kg/injection, schedule: Q01DX009 (ip), vehicle: saline.
Setting [12] is: dose: 100.0 mg/kg/injection, schedule: Q01DX001 (ip), vehicle: saline with Tween-80.
Setting [13] is: dose: 200.0 mg/kg/injection, schedule: Q01DX001 (ip), vehicle: saline with Tween-80.
Where [14] appears, read: dose: 400.0 mg/kg/injection, schedule: Q01DX001 (ip), vehicle: saline with Tween-80.
[15] abbreviates: dose: 200.0 mg/kg/injection, schedule: Q01DX009 (ip), vehicle: Klucel (hydroxypropylcellulose) (HPC).
[16] abbreviates: dose: 12.5 mg/kg/injection, schedule: Q01DX005 (ip), vehicle: Klucel (hydroxypropylcellulose) (HPC).
The mark [17] stands for this setting: dose: 25.0 mg/kg/injection, schedule: Q01DX005 (ip), vehicle: Klucel (hydroxypropylcellulose) (HPC).
The mark [18] stands for this setting: dose: 6.25 mg/kg/injection, schedule: Q01DX009 (ip), vehicle: Klucel (hydroxypropylcellulose) (HPC).

Consider `CCCCCCCCCCCC(=O)c1c(O)c2ccccc2oc1=O`, for which the T/C is 95 % of control under setting [1] and 94 % of control under setting [2].

As to `O=S1(=O)CC(N2CCOCC2)C2=C(O1)c1ccccc1OCC2` (stereo unspecified), the T/C is 98 % of control under setting [3], 97 % of control under setting [4] and 88 % of control under setting [5].

For `CCOC(=O)c1[nH]cnc1/N=N/N(C)C`, the T/C reads like this: (dose: 100.0 mg/kg/injection, schedule: Q01DX009 (ip), vehicle: saline with Tween-80) 90 % of control; (dose: 150.0 mg/kg/injection, schedule: Q04DX003 (ip), vehicle: saline with Tween-80) 120 % of control; (dose: 200.0 mg/kg/injection, schedule: Q04DX003 (ip), vehicle: saline with Tween-80) 150 % of control.

`O=C1CCCC1C(=O)c1ccccc1.O=C1CCCC1C(=O)c1ccccc1.[Cu]` (stereo unspecified): the T/C was 103 % of control under setting [6]; 100 % of control under setting [7]; 100 % of control and 109 % of control under setting [8]; 116 % of control under setting [9].

In the case of `Cc1cc(C(=O)NN)no1`, the T/C runs as follows: under setting [10], 99 % of control; under setting [11], 100 % of control.

Turning to `Cc1ccc(C(=O)/C(=C/c2ccccn2)N=[N+]=[N-])cc1`, the T/C under setting [12] was 110 % of control, the T/C under setting [13] is 104 % of control and the T/C under setting [14] was 99 % of control.

On to `CCOC(=O)/C(=C\Nc1cccc(OCc2ccccc2)c1)NC(=O)c1ccccc1`, for which the T/C under setting [8] is 87 % of control; the T/C under setting [9] was 88 % of control; the T/C under setting [15] was 86 % of control and 96 % of control; the T/C (dose: 400.0 mg/kg/injection, schedule: Q01DX009 (ip), vehicle: Klucel (hydroxypropylcellulose) (HPC)) is 97 % of control.

As to `O=C1Nc2ccc(Cl)cc2C(c2ccccc2Cl)=NC1O` (stereo unspecified), the T/C reads like this: under setting [9], 102 % of control; under setting [15], 96 % of control.

With `CSC1=N[N+]2=C(C)c3ccccc3O[B-]2(c2ccccc2)S1` (stereo unspecified), the T/C reads like this: under setting [1], 96 % of control; under setting [2], 92 % of control; (dose: 200.0 mg/kg/injection, schedule: Q01DX005 (ip), vehicle: saline with Tween-80) 87 % of control.

Take `COc1cc(/C=C/c2ccc(O)c(OC)c2)cc(OC)c1`: the T/C runs as follows: (dose: 6.25 mg/kg/injection, schedule: Q01DX005 (ip), vehicle: Klucel (hydroxypropylcellulose) (HPC)) 104 % of control; under setting [16], 107 % of control; under setting [17], 100 % of control; under setting [3], 104 % of control and 108 % of control; under setting [4], 95 % of control; under setting [5], 88 % of control.

As to `O=[N+]([O-])c1ccc(-c2cn(-c3ccc(Cl)cc3)cn2)cc1`, the T/C (dose: 60.0 mg/kg/injection, schedule: Q01DX005 (ip), vehicle: saline with Tween-80) was 96 % of control; the T/C (dose: 120.0 mg/kg/injection, schedule: Q01DX005 (ip), vehicle: saline with Tween-80) was 88 % of control; the T/C (dose: 240.0 mg/kg/injection, schedule: Q01DX005 (ip), vehicle: saline with Tween-80) is 88 % of control.

For the compound `C1CC[N-]CC1.C1CC[N-]CC1.C1CC[N-]CC1.[Cl][Rh]([Cl])[Cl]`, the T/C was 100 % of control and 96 % of control (dose: 1.0 mg/kg/injection, schedule: Q03HX024 (ip), vehicle: saline); 97 % of control (dose: 2.0 mg/kg/injection, schedule: Q03HX016 (ip), vehicle: saline); 96 % of control and 98 % of control (dose: 2.0 mg/kg/injection, schedule: Q03HX024 (ip), vehicle: saline); 98 % of control (dose: 4.0 mg/kg/injection, schedule: Q01DX009 (ip), vehicle: saline); 96 % of control (dose: 4.0 mg/kg/injection, schedule: Q03HX016 (ip), vehicle: saline); 96 % of control (dose: 4.0 mg/kg/injection, schedule: Q03HX024 (ip), vehicle: saline). Moreover, the T/C is 110 % of control and 96 % of control (dose: 8.0 mg/kg/injection, schedule: Q03HX016 (ip), vehicle: saline); 97 % of control (dose: 8.0 mg/kg/injection, schedule: Q03HX024 (ip), vehicle: saline); 100 % of control (dose: 8.0 mg/kg/injection, schedule: Q04DX003 (ip), vehicle: saline); 110 % of control (dose: 16.0 mg/kg/injection, schedule: Q01DX001 (ip), vehicle: saline); 119 % of control (dose: 16.0 mg/kg/injection, schedule: Q03HX008 (ip), vehicle: saline); 97 % of control (dose: 16.0 mg/kg/injection, schedule: Q03HX024 (ip), vehicle: saline). In addition, the T/C is 154 % of control (dose: 25.0 mg/kg/injection, schedule: Q01DX009 (ip), vehicle: saline with Tween-80); 118 % of control (dose: 32.0 mg/kg/injection, schedule: Q01DX009 (ip), vehicle: saline); 110 % of control (dose: 32.0 mg/kg/injection, schedule: Q03HX008 (ip), vehicle: saline); 96 % of control (dose: 32.0 mg/kg/injection, schedule: Q03HX016 (ip), vehicle: saline); 96 % of control and 97 % of control (dose: 32.0 mg/kg/injection, schedule: Q03HX024 (ip), vehicle: saline); 110 % of control (dose: 64.0 mg/kg/injection, schedule: Q01DX001 (ip), vehicle: saline). For the same compound, the T/C is 118 % of control (dose: 64.0 mg/kg/injection, schedule: Q01DX009 (ip), vehicle: saline) and 110 % of control (dose: 64.0 mg/kg/injection, schedule: Q08DX002 (ip), vehicle: saline).

For the compound `Cc1ccc2sc3ccccc3c(=O)c2c1`, the T/C by setting is: under setting [10], 104 % of control; under setting [11], 113 % of control; (dose: 200.0 mg/kg/injection, schedule: Q01DX009 (ip), vehicle: saline) 87 % of control.

Take `O=[N+]([O-])C1=NOCC1`: the T/C is 95 % of control (dose: 50.0 mg/kg/injection, schedule: Q01DX005 (ip), vehicle: suspension in saline) and 95 % of control (dose: 100.0 mg/kg/injection, schedule: Q01DX005 (ip), vehicle: suspension in saline).

`CC(O)C(=O)N1Cc2cc3ccccc3nc2C1` (stereo unspecified): the T/C (dose: 4.0 mg/kg/injection, schedule: Q01DX009 (ip), vehicle: saline with Tween-80) was 94 % of control; the T/C (dose: 8.0 mg/kg/injection, schedule: Q01DX009 (ip), vehicle: saline with Tween-80) was 89 % of control; the T/C (dose: 16.0 mg/kg/injection, schedule: Q01DX009 (ip), vehicle: saline with Tween-80) is 92 % of control; the T/C (dose: 32.0 mg/kg/injection, schedule: Q01DX009 (ip), vehicle: saline with Tween-80) is 90 % of control; the T/C (dose: 64.0 mg/kg/injection, schedule: Q01DX009 (ip), vehicle: saline with Tween-80) was 91 % of control.

Take `CN(C)CC/C=C1/c2ccccc2C=Nc2ccc(Cl)cc21`: the T/C under setting [18] is 116 % of control, the T/C under setting [6] was 108 % of control and the T/C under setting [7] is 99 % of control.

For the compound `CS(=O)(=O)NC1CC(=O)N(Cc2ccccc2)C1=O` (stereo unspecified), the T/C (dose: 25.0 mg/kg/injection, schedule: Q01DX005 (ip), vehicle: saline) was 91 % of control; the T/C (dose: 50.0 mg/kg/injection, schedule: Q01DX005 (ip), vehicle: saline) is 99 % of control; the T/C (dose: 100.0 mg/kg/injection, schedule: Q01DX005 (ip), vehicle: saline) is 105 % of control.

As to `CCCCOC(=O)NP1(=O)NCc2ccccc2CN1`, the T/C by setting is: under setting [16], 93 % of control; under setting [17], 87 % of control; under setting [3], 91 % of control and 93 % of control; under setting [5], 91 % of control.

With `O=C(O)CSc1nnc(C2CCC(=O)N2Cc2ccccc2)o1` (stereo unspecified), the T/C by setting is: under setting [12], 99 % of control; under setting [13], 101 % of control; under setting [14], 95 % of control.

Consider `N#C/C1=C(\C#N)CCC2(C#N)C3C=CC(O3)C2(C#N)CC1` (stereo unspecified), for which the T/C is, setting by setting: (dose: 3.12 mg/kg/injection, schedule: Q01DX009 (ip), vehicle: Klucel (hydroxypropylcellulose) (HPC)) 103 % of control; under setting [18], 100 % of control; under setting [6], 100 % of control.
